According to patent US7737144B2, “Pyrimido[5,4-e][1,2,4]triazine-5-7-diones, processes for preparing them and their use” (Sanofi-Aventis Deutschland GmbH, priority 2003, dated 2010):

Molecular target: T1, recombinant human PTP1B (Homo sapiens, UniProt P18031)
T1 construct: without the carboxy terminal hydrophobic region (corresponding to 1-299 aa); FLAG (N); made in house; host or cells: Sf9 insect cells (baculovirus, Bac-to-Bac)
T1 sequence (P18031 1-299): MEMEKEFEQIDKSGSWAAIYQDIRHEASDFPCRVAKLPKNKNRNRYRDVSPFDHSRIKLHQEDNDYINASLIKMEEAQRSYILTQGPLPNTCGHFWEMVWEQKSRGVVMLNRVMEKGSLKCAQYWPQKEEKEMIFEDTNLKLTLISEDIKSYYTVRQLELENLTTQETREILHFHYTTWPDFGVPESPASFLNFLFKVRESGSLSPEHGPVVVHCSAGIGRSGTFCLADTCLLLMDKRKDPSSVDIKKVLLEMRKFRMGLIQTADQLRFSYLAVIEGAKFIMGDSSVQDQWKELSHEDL
Assay: Inhibiting phosphotyrosine phosphatase 1B (PTP1B), in-vitro phosphatase assay
Type: biochemical
Settings: Table 2 Biological activity; substrate variant (phosphopeptide, p-nitrophenyl phosphate or DIFMUP) not stated
From the text: Inhibiting Phosphotyrosine Phosphatase 1B (PTP1B)
The setting up and implementation of an in-vitro assay for detecting a phosphatase-inhibiting effect of the compounds according to the invention are described below. The isolation of the enzyme preparation and the implementation of the assay are described. […]
This assay is based on releasing phosphate from a consensus substrate peptide which is detected in the nanomolar concentration range using the malachite green/ammonium molybdate method (Lanzetta, P. A., Alvarez, L. J., Reinach, P. S., Candia, O. A. Anal Biochem. 100: 95-97, 1979) as adapted for the microtiter plate format. […] After incubating at 22° C. for 30 min, in order to develop the color, the absorption at 650 nm was determined using a microtiter plate reader (Molecular Devices). Samples and blanks were measured in triplicate. The PTP1B activity was calculated as nanomoles of phosphate released per min and mg of protein using potassium phosphate as the standard. The inhibition of the recombinant hPTP1B by test substances was calculated as percentages of the phosphatase control. […]

- IC50: 5.2 µM
Compound: CCCCn1nc(-c2cccc(Oc3ccccc3)c2)nc2c(=O)n(C)c(=O)nc1-2 [compound 5]
